According to patent publication US9980943B2, “Methods of treating muscular dystrophy” (BOARD OF REGENTS OF THE NEVADA SYSTEM OF HIGHER EDUCATION, …, priority 2013, dated 2018):
Like-named read-outs stand apart in the source and are kept apart here.

Tests used:
Format in all cases: cell-based, mouse
[1] = test system: α7 integrin (LacZ reporter in α7βgal+/− myoblasts); test: Myoblast α7+/LacZ integrin FDG assay (Burkin assay in myoblasts, 96-well); conditions: α7+/LacZ myoblasts, 96-well; for fold induction at 0.5 µM / fold induction at 1 µM / fold induction at 5 µM / fold induction at 10 µM / fold induction at 20 µM / fold induction at 40 µM: Mus musculus, Myoblast, 48 h
[2] = test system: β-galactosidase in CMV-LacZ C2C12 myoblasts; test: CMV-LacZ secondary screen in C2C12 myoblasts (β-Gal stabilizing assay); conditions: CMV-LacZ C2C12 myoblasts
Description: In order to determine compounds that acted to stabilize β-gal in myogenic cells, a CMV-LacZ C2C12 cell line was used in a secondary screen. The EGFP gene from the pEGFP (Clontech) vector was replaced by LACZ PCR product with digests of the vector/PCR product performed using EcoRI (NEB) and NotI (NEB) and ligated using T4 DNA Ligase (NEB) following standard procedures to produce the CMV-LACZ vector. The LACZ gene was generated by PCR from the pBK-RSV (Stratagene) vector using primers LACZ EcoRI F- and LACZ NotI R-. The CMV-LACZ vector was then digested with AfIII (NEB) to linearize the construct, which was then transfected in C2C12 myoblasts using Lipofectamine 2000 (Invitrogen) following the manufacturer's instructions. […] Clonal lines were selected and screened for βgal levels using the myoblast FDG assay.
The assays were used the original 96-well format and new dose-response curves for myoblasts (N=3-6 replicates for each data point), myotubes (N=3-6 replicates for data point), and CMV-LacZ secondary assay (N=2 replicates for each data point) using concentrations of 0.5 μM, 1 μM, 5 μM, 10 μM, 20 μM, and 40 μM (Tables 9-16).

[3] = test system: α7 integrin (LacZ reporter in α7+/LacZ myotubes); test: Myotube α7 integrin FDG assay (Burkin assay in myotubes, 96-well); conditions: myotubes; for fold induction at 0.5 µM / fold induction at 1 µM / fold induction at 5 µM / fold induction at 10 µM / fold induction at 20 µM / fold induction at 40 µM: Mus musculus, Myotube
[4] = test system: β-galactosidase in CMV-LacZ C2C12 myotubes; test: CMV-LacZ secondary screen in C2C12 myotubes (β-Gal stabilizing assay); conditions: C2C12 CMV-LacZ myotubes, fold relative to DMSO
Method in brief: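 First, C2C12 myoblasts were transfected with a linearized CMV-LACZ vector and clonal lines selected by FDG β-gal assay. Then cells were exposed to compounds at 0.5, 1, 5, 10, 20 and 40 μM in 96-well format, two replicates each, and β-gal measured.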

## CC(=O)Nc1ccc(-n2c(C)nc(=O)c(-c3ccccc3)c2C)cc1 [MLS000078709-01]
[1]; 0.5 uM
  Burkin Assay in Myoblasts, signal relative to DMSO: 1.063
[1]; 1 uM
  Burkin Assay in Myoblasts, signal relative to DMSO: 0.996
[1]; 5 uM
  Burkin Assay in Myoblasts, signal relative to DMSO: 0.8157
[1]; 10 uM
  Burkin Assay in Myoblasts, signal relative to DMSO: 0.8052
[1]; 20 uM
  Burkin Assay in Myoblasts, signal relative to DMSO: 0.5171
[1]; 40 uM
  Burkin Assay in Myoblasts, signal relative to DMSO: 0.2616
[2]; 0.5 uM
  CMV-LACZ in Myoblasts (β-galactosidase activity relative to DMSO): 0.8167
[2]; 1 uM
  CMV-LACZ in Myoblasts (β-galactosidase activity relative to DMSO): 0.7008
[2]; 5 uM
  CMV-LACZ in Myoblasts (β-galactosidase activity relative to DMSO): 0.9270
[2]; 10 uM
  CMV-LACZ in Myoblasts (β-galactosidase activity relative to DMSO): 1.0163
[2]; 20 uM
  CMV-LACZ in Myoblasts (β-galactosidase activity relative to DMSO): 0.6919
[2]; 40 uM
  CMV-LACZ in Myoblasts (β-galactosidase activity relative to DMSO): 0.4830
[3]; 0.5 uM
  Burkin Assay in Myotubes, α7 integrin LacZ reporter signal relative to DMSO: 0.8374
[3]; 1 uM
  Burkin Assay in Myotubes, α7 integrin LacZ reporter signal relative to DMSO: 0.8236
[3]; 5 uM
  Burkin Assay in Myotubes, α7 integrin LacZ reporter signal relative to DMSO: 0.9535
[3]; 10 uM
  Burkin Assay in Myotubes, α7 integrin LacZ reporter signal relative to DMSO: 0.9899
[3]; 20 uM
  Burkin Assay in Myotubes, α7 integrin LacZ reporter signal relative to DMSO: 0.6311
[3]; 40 uM
  Burkin Assay in Myotubes, α7 integrin LacZ reporter signal relative to DMSO: 0.4894
[4]; 0.5 uM
  CMV-LACZ in Myotubes, signal relative to DMSO: 1.0133
[4]; 1 uM
  CMV-LACZ in Myotubes, signal relative to DMSO: 0.9257
[4]; 5 uM
  CMV-LACZ in Myotubes, signal relative to DMSO: 0.9348
[4]; 10 uM
  CMV-LACZ in Myotubes, signal relative to DMSO: 0.8743
[4]; 20 uM
  CMV-LACZ in Myotubes, signal relative to DMSO: 1.0853
[4]; 40 uM
  CMV-LACZ in Myotubes, signal relative to DMSO: 1.7737

## N#CC1=C2SCN(c3ccccc3)CN2C(=O)CC1c1cccs1 (stereo not drawn) [MLS000080654-01]
[1]; 0.5 uM
  Burkin Assay in Myoblasts, signal relative to DMSO: 0.9788
[1]; 1 uM
  Burkin Assay in Myoblasts, signal relative to DMSO: 0.923
[1]; 5 uM
  Burkin Assay in Myoblasts, signal relative to DMSO: 0.9235
[1]; 10 uM
  Burkin Assay in Myoblasts, signal relative to DMSO: 0.9429
[1]; 20 uM
  Burkin Assay in Myoblasts, signal relative to DMSO: 1.112
[1]; 40 uM
  Burkin Assay in Myoblasts, signal relative to DMSO: 0.9166
[2]; 0.5 uM
  CMV-LACZ in Myoblasts (β-galactosidase activity relative to DMSO): 1.1851
[2]; 1 uM
  CMV-LACZ in Myoblasts (β-galactosidase activity relative to DMSO): 1.4314
[2]; 5 uM
  CMV-LACZ in Myoblasts (β-galactosidase activity relative to DMSO): 1.0703
[2]; 10 uM
  CMV-LACZ in Myoblasts (β-galactosidase activity relative to DMSO): 0.9345
[2]; 20 uM
  CMV-LACZ in Myoblasts (β-galactosidase activity relative to DMSO): 1.0174
[2]; 40 uM
  CMV-LACZ in Myoblasts (β-galactosidase activity relative to DMSO): 0.8815
[3]; 0.5 uM
  Burkin Assay in Myotubes, α7 integrin LacZ reporter signal relative to DMSO: 1.067
[3]; 1 uM
  Burkin Assay in Myotubes, α7 integrin LacZ reporter signal relative to DMSO: 1.092
[3]; 5 uM
  Burkin Assay in Myotubes, α7 integrin LacZ reporter signal relative to DMSO: 0.9044
[3]; 10 uM
  Burkin Assay in Myotubes, α7 integrin LacZ reporter signal relative to DMSO: 0.9707
[3]; 20 uM
  Burkin Assay in Myotubes, α7 integrin LacZ reporter signal relative to DMSO: 0.7422
[3]; 40 uM
  Burkin Assay in Myotubes, α7 integrin LacZ reporter signal relative to DMSO: 0.6217
[4]; 0.5 uM
  CMV-LACZ in Myotubes, signal relative to DMSO: 1.1229
[4]; 1 uM
  CMV-LACZ in Myotubes, signal relative to DMSO: 1.0086
[4]; 5 uM
  CMV-LACZ in Myotubes, signal relative to DMSO: 1.0335
[4]; 10 uM
  CMV-LACZ in Myotubes, signal relative to DMSO: 1.0399
[4]; 20 uM
  CMV-LACZ in Myotubes, signal relative to DMSO: 1.1871
[4]; 40 uM
  CMV-LACZ in Myotubes, signal relative to DMSO: 1.4259

## CCOC(=O)C1CCCN(C(=O)CNS(=O)(=O)c2ccc(Br)s2)C1 (stereo not drawn) [MLS000086970-01]
[1]; 0.5 uM, read-out: Burkin Assay in Myoblasts, signal relative to DMSO
  fold induction at 0.5 µM: 0.982
[1]; 0.5 uM, read-out: Burkin Assay in Myoblasts, value relative to DMSO
  fold induction at 0.5 µM: 1.01
[1]; 1 uM, read-out: Burkin Assay in Myoblasts, signal relative to DMSO
  fold induction at 1 µM: 1.07
[1]; 1 uM, read-out: Burkin Assay in Myoblasts, value relative to DMSO
  fold induction at 1 µM: 1.2
[1]; 5 uM, read-out: Burkin Assay in Myoblasts, signal relative to DMSO
  fold induction at 5 µM: 0.858
[1]; 5 uM, read-out: Burkin Assay in Myoblasts, value relative to DMSO
  fold induction at 5 µM: 1.6
[1]; 10 uM, read-out: Burkin Assay in Myoblasts, signal relative to DMSO
  fold induction at 10 µM: 0.872
[1]; 10 uM, read-out: Burkin Assay in Myoblasts, value relative to DMSO
  fold induction at 10 µM: 0.955
[1]; 20 uM, read-out: Burkin Assay in Myoblasts, signal relative to DMSO
  fold induction at 20 µM: 0.854
[1]; 20 uM, read-out: Burkin Assay in Myoblasts, value relative to DMSO
  fold induction at 20 µM: 1.02
[1]; 40 uM, read-out: Burkin Assay in Myoblasts, signal relative to DMSO
  fold induction at 40 µM: 0.781
[1]; 40 uM, read-out: Burkin Assay in Myoblasts, value relative to DMSO
  fold induction at 40 µM: 0.934
[2]; 0.5 uM
  CMV-LACZ in Myoblasts (β-galactosidase activity relative to DMSO): 0.9925
[2]; 1 uM
  CMV-LACZ in Myoblasts (β-galactosidase activity relative to DMSO): 1.0504
[2]; 5 uM
  CMV-LACZ in Myoblasts (β-galactosidase activity relative to DMSO): 0.8994
[2]; 10 uM
  CMV-LACZ in Myoblasts (β-galactosidase activity relative to DMSO): 0.9068
[2]; 20 uM
  CMV-LACZ in Myoblasts (β-galactosidase activity relative to DMSO): 1.0197
[2]; 40 uM
  CMV-LACZ in Myoblasts (β-galactosidase activity relative to DMSO): 0.8880
[3]; 0.5 uM, read-out: Burkin Assay in Myotubes (signal relative to DMSO)
  fold induction at 0.5 µM: 0.953
[3]; 1 uM, read-out: Burkin Assay in Myotubes (signal relative to DMSO)
  fold induction at 1 µM: 0.922
[3]; 5 uM, read-out: Burkin Assay in Myotubes (signal relative to DMSO)
  fold induction at 5 µM: 1.09
[3]; 10 uM, read-out: Burkin Assay in Myotubes (signal relative to DMSO)
  fold induction at 10 µM: 0.961
[3]; 20 uM, read-out: Burkin Assay in Myotubes (signal relative to DMSO)
  fold induction at 20 µM: 0.931
[3]; 40 uM, read-out: Burkin Assay in Myotubes (signal relative to DMSO)
  fold induction at 40 µM: 0.887
[3]; 0.5 uM, read-out: Burkin Assay in Myotubes, α7 integrin LacZ reporter signal relative to DMSO
  fold induction at 0.5 µM: 1
[3]; 1 uM, read-out: Burkin Assay in Myotubes, α7 integrin LacZ reporter signal relative to DMSO
  fold induction at 1 µM: 1.09
[3]; 5 uM, read-out: Burkin Assay in Myotubes, α7 integrin LacZ reporter signal relative to DMSO
  fold induction at 5 µM: 0.864
[3]; 10 uM, read-out: Burkin Assay in Myotubes, α7 integrin LacZ reporter signal relative to DMSO
  fold induction at 10 µM: 0.958
[3]; 20 uM, read-out: Burkin Assay in Myotubes, α7 integrin LacZ reporter signal relative to DMSO
  fold induction at 20 µM: 0.961
[3]; 40 uM, read-out: Burkin Assay in Myotubes, α7 integrin LacZ reporter signal relative to DMSO
  fold induction at 40 µM: 0.971
[4]; Mus musculus, C2C12, read-out: CMV-LACZ in Myotubes, signal relative to DMSO, 0.5 uM
  fold induction at 0.5 µM: 0.967
[4]; Mus musculus, C2C12, read-out: CMV-LACZ in Myotubes, signal relative to DMSO, 1 uM
  fold induction at 1 µM: 0.885
[4]; Mus musculus, C2C12, read-out: CMV-LACZ in Myotubes, signal relative to DMSO, 5 uM
  fold induction at 5 µM: 1.11
[4]; Mus musculus, C2C12, read-out: CMV-LACZ in Myotubes, signal relative to DMSO, 10 uM
  fold induction at 10 µM: 0.974
[4]; Mus musculus, C2C12, read-out: CMV-LACZ in Myotubes, signal relative to DMSO, 20 uM
  fold induction at 20 µM: 0.987
[4]; Mus musculus, C2C12, read-out: CMV-LACZ in Myotubes, signal relative to DMSO, 40 uM
  fold induction at 40 µM: 0.988
